We go through 28 compounds from patent US20150266878A1, “NOVEL BI-RING PHENYL-PYRIDINES/PYRAZINES FOR THE TREATMENT OF CANCER” (HOFFMANN-LA ROCHE INC., priority 2012, published 2015).

Molecules are shown by their SMILES.

The experiment has as its target T1, CDK8/Cyclin C (Homo sapiens, UniProt P49336).
T1 construct: purchased Invitrogen PV4402
Description: CDK8/Cyclin C LANCE TR-FRET kinase assay. It counts as biochemical. The conditions noted are these: CDK8/Cyclin C 10 nM, ATP 24 μM, Ulight-GS peptide 80 nM, 37° C. 30 mins. The source says:
CDK8/Cyclin C LANCE TR-FRET Kinase Assay:
The biological activity of the compounds of the invention can be determined using the assay described below.
CDK8/Cyclin C protein was obtained from Invitrogen, cat #PV4402. ULight-Glycogen Synthase (Ulight-GS) peptide with sequence PASVPPSPSLSRHSSPHQ(pS)ED, and Europium-anti-phospho Glycogen Synthase (Ser641) [Eu-anti-P-GS (Ser641)] were obtained from Perkin Elmer, cat #TRF0131-M and cat #TRF0220. Adenosine-5′-triphosphate (ATP) was obtained from Invitrogen, cat #PV3227.
A mixture of (1) a compound of formula I, (2) substrate [Ulight-GS peptide (80 nM) and ATP (24 μM)], and (3) CDK8/Cyclin C (10 nM) in reaction buffer (50 mM Hepes, pH7.0, 10 mM MgCl2, 1 mM EGTA, 0.2 mg/mL BSA, 0.8 mM DTT) were incubated at 37° C. for 30 mins. Then, [Eu-anti-P-GS (Ser641)] (1.5 nM) was added. Following incubation at room temperature for 30 mins, the TR-FRET signals were detected using Envision reader (Ex 340 nm, Em 615 nm and 665 nm) from Perkin Elmer. The reactivity in percentage of inhibition or dose response was analyzed with GraphPad Prism 5 (GraphPad Software).
A general note: In TR-FRET formats the signal depends on donor and acceptor labels being close together.

T1 sequence (P49336 whole entry): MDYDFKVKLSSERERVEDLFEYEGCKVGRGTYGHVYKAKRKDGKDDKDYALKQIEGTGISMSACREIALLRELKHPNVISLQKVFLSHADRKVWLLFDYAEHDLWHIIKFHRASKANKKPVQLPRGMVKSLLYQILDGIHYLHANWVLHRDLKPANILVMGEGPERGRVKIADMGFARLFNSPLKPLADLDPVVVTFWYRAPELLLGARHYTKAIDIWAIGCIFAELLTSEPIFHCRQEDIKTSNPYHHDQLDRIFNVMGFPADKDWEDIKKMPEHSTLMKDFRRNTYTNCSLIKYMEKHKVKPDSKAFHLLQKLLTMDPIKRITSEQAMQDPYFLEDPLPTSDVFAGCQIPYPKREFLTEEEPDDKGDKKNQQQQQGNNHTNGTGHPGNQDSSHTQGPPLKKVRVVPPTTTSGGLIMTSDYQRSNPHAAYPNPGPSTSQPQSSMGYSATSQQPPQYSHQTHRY
T1 sequence (P24863 whole entry partner): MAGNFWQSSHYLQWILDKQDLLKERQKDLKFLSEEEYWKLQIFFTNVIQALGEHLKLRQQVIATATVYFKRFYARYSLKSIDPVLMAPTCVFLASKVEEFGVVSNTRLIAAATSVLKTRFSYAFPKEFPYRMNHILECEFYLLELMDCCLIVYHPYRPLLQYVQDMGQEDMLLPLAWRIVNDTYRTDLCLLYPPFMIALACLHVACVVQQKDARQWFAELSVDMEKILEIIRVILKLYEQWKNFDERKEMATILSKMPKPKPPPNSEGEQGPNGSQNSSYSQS

Usually IC50 stands for the point on the concentration scale where inhibition reaches its midpoint. Turning to `CC(=O)NC[C@H](Nc1cncc(-c2ccc3[nH]ncc3c2)c1)c1ccccc1` [Example 40, N-{(R)-2-[5-(1H-Indazol-5-yl)-pyridin-3-ylamino]-2-phenyl-ethyl}-acetamide], the IC50 came out at 1.8 nM. The result for `CS(=O)(=O)NC[C@H](Nc1cncc(-c2ccc3[nH]ncc3c2)c1)c1ccccc1` [Example 41, N-{(R)-2-[5-(1H-Indazol-5-yl)-pyridin-3-ylamino]-2-phenyl-ethyl}-methanesulfonamide] reads 0.3 nM; that for `NC(=O)[C@@H](Nc1cncc(-c2ccc3[nH]ncc3c2)c1)c1ccccc1` [Example 39, (S)-2-[5-(1H-indazol-5-yl)-pyridin-3-ylamino]-2-phenyl-acetamide], 8.8 nM; that for `Nc1n[nH]c2ccc(-c3cncc(N[C@@H](CO)c4ccccc4)c3)cc12` [Example 18, (R)-2-[5-(3-Amino-1H-indazol-5-yl)-pyridin-3-ylamino]-2-phenyl-ethanol], 0.8 nM. As for `OC[C@H](Nc1cncc(-c2ccc3[nH]nnc3c2)c1)c1ccccc1` [Example 26, (R)-2-[5-(1H-Benzotriazol-5-yl)-pyridin-3-ylamino]-2-phenyl-ethanol], the figure is 9.4 nM; as for `NC(=O)[C@@H](Nc1cncc(-c2ccc3[nH]nc(Cl)c3c2)c1)c1ccccc1` [Example 60, (S)-2-[5-(3-Chloro-1H-indazol-5-yl)-pyridin-3-ylamino]-2-phenyl-acetamide], 9.2 nM. The result for `Cc1n[nH]c2ccc(-c3cncc(N[C@@H](CNC(=O)C4CCCCC4)c4ccccc4)c3)cc12` [Example 57, Cyclohexanecarboxylic acid {(R)-2-[5-(3-methyl-1H-indazol-5-yl)-pyridin-3-ylamino]-2-phenyl-ethyl}-amide] reads 5.3 nM; that for `NC(=O)C(Nc1cncc(-c2ccc3[nH]ncc3c2)c1)c1ccccc1` (stereo not shown) [Example 37, 2-[5-(1H-Indazol-5-yl)-pyridin-3-ylamino]-2-phenyl-acetamide], 3.4 nM; that for `Cc1n[nH]c2ccc(-c3cncc(NC(CNS(C)(=O)=O)c4ccccc4)c3)cc12` (stereo not shown) [Example 50, N-{2-[5-(3-Methyl-1H-indazol-5-yl)-pyridin-3-ylamino]-2-phenyl-ethyl}-methanesulfonamide], 2.8 nM.

`CSc1n[nH]c2ccc(-c3cncc(N[C@@H](CO)c4ccccc4)c3)cc12` [Example 22, (R)-2-[5-(3-Methylsulfanyl-1H-indazol-5-yl)-pyridin-3-ylamino]-2-phenyl-ethanol] displayed an IC50 of 0.5 nM.

Turning to `O=c1[nH]c2ccc(-c3cncc(N[C@@H](CO)c4ccccc4)c3)cc2s1` [Example 13, 6-[5-((R)-2-Hydroxy-1-phenyl-ethylamino)-pyridin-3-yl]-3H-benzothiazol-2-one], the IC50 was determined as 7.8 nM. As for `OC[C@H](Nc1cncc(-c2cc3cn[nH]c3cn2)c1)c1ccccc1` [Example 25, (R)-2-Phenyl-2-[5-(1H-pyrazolo[3,4-c]pyridin-5-yl)-pyridin-3-ylamino]-ethanol], the figure is 0.7 nM; as for `O=C1Cc2cc(-c3cncc(N[C@@H](CO)c4ccccc4)c3)cc(F)c2N1` [Example 11, 7-Fluoro-5-[5-((R)-2-hydroxy-1-phenyl-ethylamino)-pyridin-3-yl]-1,3-dihydro-indol-2-one], 27.8 nM; as for `Cc1n[nH]c2ccc(-c3cncc(N[C@@H](C(N)=O)c4ccccc4)c3)cc12` [Example 48, (R)-2-[5-(3-Methyl-1H-indazol-5-yl)-pyridin-3-ylamino]-2-phenyl-acetamide], 1.6 nM.

Compound `OC[C@H](Nc1cncc(-c2ccc3[nH]nc(Cl)c3c2)c1)c1ccccc1` [Example 28, (R)-2-[5-(3-Chloro-1H-indazol-5-yl)-pyridin-3-ylamino]-2-phenyl-ethanol] showed a half-maximal inhibitory concentration (IC50) of 1 nM. On to `COCCS(=O)(=O)NC[C@H](Nc1cncc(-c2ccc3[nH]nc(C)c3c2)c1)c1ccccc1` [Example 53, 2-Methoxy-ethanesulfonic acid {(R)-2-[5-(3-methyl-1H-indazol-5-yl)-pyridin-3-ylamino]-2-phenyl-ethyl}-amide], for which the IC50 is 1.7 nM. The result for `COCCNC[C@H](Nc1cncc(-c2ccc3[nH]nc(F)c3c2)c1)c1ccccc1` [Example 45, (R)-N^1-[5-(3-Fluoro-1H-indazol-5-yl)-pyridin-3-yl]-N^2-(2-methoxy-ethyl)-1-phenyl-ethane-1,2-diamine] reads 29.5 nM; that for `NC(=O)C(Nc1cncc(-c2cc3c(cc2F)NC(=O)CC3)c1)c1ccccc1` (stereo not shown) [Example 34, 2-[5-(7-Fluoro-2-oxo-1,2,3,4-tetrahydro-quinolin-6-yl)-pyridin-3-ylamino]-2-phenyl-acetamide], 1400 nM. The result for `O=C1Cc2cc(-c3cncc(N[C@@H](CO)c4ccccc4)c3)cnc2N1` [Example 7, 5-[5-((R)-2-Hydroxy-1-phenyl-ethylamino)-pyridin-3-yl]-1,3-dihydro-pyrrolo[2,3-b]pyridin-2-one] reads 315 nM; that for `NC(=O)[C@H](Nc1cncc(-c2ccc3[nH]nc(Cl)c3c2)c1)c1ccccc1` [Example 59, (R)-2-[5-(3-Chloro-1H-indazol-5-yl)-pyridin-3-ylamino]-2-phenyl-acetamide], 2.3 nM; that for `OC[C@H](Nc1cncc(-c2ccc3[nH]ncc3n2)c1)c1ccccc1` [Example 27, (R)-2-Phenyl-2-[5-(1H-pyrazolo[4,3-b]pyridin-5-yl)-pyridin-3-ylamino]-ethanol], 9.7 nM. The result for `NC(=O)C(Nc1cncc(-c2ccc3c(c2)OCCO3)c1)c1ccccc1` (stereo not shown) [Example 36, 2-[5-(2,3-Dihydro-benzo[1,4]dioxin-6-yl)-pyridin-3-ylamino]-2-phenyl-acetamide] reads 2510 nM.

`Cc1n[nH]c2ccc(-c3cncc(N[C@@H](CNCCO)c4ccccc4)c3)cc12` [Example 56, 2-{(R)-2-[5-(3-Methyl-1H-indazol-5-yl)-pyridin-3-ylamino]-2-phenyl-ethylamino}-ethanol] yielded an IC50 of 5 nM. The result for `Cc1n[nH]c2ccc(-c3cncc(N[C@@H](CNC(=O)CO)c4ccccc4)c3)cc12` [Example 54, 2-Hydroxy-N-{(R)-2-[5-(3-methyl-1H-indazol-5-yl)-pyridin-3-ylamino]-2-phenyl-ethyl}-acetamide] reads 1.2 nM; that for `Cc1n[nH]c2ccc(-c3cncc(N[C@@H](CNS(=O)(=O)C4CC4)c4ccccc4)c3)cc12` [Example 51, Cyclopropanesulfonic acid {(R)-2-[5-(3-methyl-1H-indazol-5-yl)-pyridin-3-ylamino]-2-phenyl-ethyl}-amide], 2.1 nM. The result for `CC1(C)C(=O)Nc2ccc(-c3cncc(N[C@@H](CO)c4ccccc4)c3)cc21` [Example 2, 5-[5-((R)-2-Hydroxy-1-phenyl-ethylamino)-pyridin-3-yl]-3,3-dimethyl-1,3-dihydro-indol-2-one] reads 132 nM. The result for `NC(=O)C(Nc1cncc(-c2ccc3c(c2)CNC3=O)c1)c1ccccc1` (stereo not drawn) [Example 31, 2-[5-(l-Oxo-2,3-dihydro-1H-isoindol-5-yl)-pyridin-3-ylamino]-2-phenyl-acetamide] reads 294 nM; that for `OC[C@H](Nc1cncc(-c2cnc3[nH]ncc3c2)c1)c1ccccc1` [Example 24, (R)-2-Phenyl-2-[5-(1H-pyrazolo[3,4-b]pyridin-5-yl)-pyridin-3-ylamino]-ethanol], 1.1 nM.
